From ChEMBL document CHEMBL4261651, “Probing the ligand preferences of the three types of bacterial pantothenate kinase” (Bioorg Med Chem, 2018)
Values after ≈ are worked out from the molar mass of the structure shown.

How the values were obtained:
Staphylococcus aureus [1] = test: Growth inhibition of Staphylococcus aureus ATCC 29213 at 860 uM after 16 hrs by broth microdilution method; format: functional; details: ATCC 29213, 16 h, read-out: GI
Staphylococcus aureus [2] = test: Growth inhibition of Staphylococcus aureus ATCC 29213 at 1230 uM after 16 hrs by broth microdilution method; format: functional; details: ATCC 29213, 16 h, read-out: GI
Staphylococcus aureus [3] = test: Growth inhibition of Staphylococcus aureus ATCC 29213 at 1000 uM after 16 hrs by broth microdilution method; format: functional; details: ATCC 29213, 16 h, read-out: GI
Staphylococcus aureus [4] = test: Growth inhibition of Staphylococcus aureus ATCC 29213 at 820 uM after 16 hrs by broth microdilution method; format: functional; details: ATCC 29213, 16 h, read-out: GI
Staphylococcus aureus [5] = test: Growth inhibition of Staphylococcus aureus ATCC 29213 at 1540 uM after 16 hrs by broth microdilution method; format: functional; details: ATCC 29213, 16 h, read-out: GI
[6] = molecular target: T1, Type III pantothenate kinase (Bacillus anthracis, UniProt Q81VX4); test: Inhibition of Bacillus anthracis pantothenate kinase 3
T1 sequence (Q81VX4 whole entry): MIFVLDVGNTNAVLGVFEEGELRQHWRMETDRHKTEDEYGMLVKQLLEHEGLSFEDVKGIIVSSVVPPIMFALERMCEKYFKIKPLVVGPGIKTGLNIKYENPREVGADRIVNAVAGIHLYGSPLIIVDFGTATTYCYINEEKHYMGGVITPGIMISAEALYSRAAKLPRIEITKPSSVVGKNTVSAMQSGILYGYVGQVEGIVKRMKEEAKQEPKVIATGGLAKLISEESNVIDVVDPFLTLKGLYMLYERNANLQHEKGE

Staphylococcus aureus [7] = test: Growth inhibition of Staphylococcus aureus ATCC 29213 at 550 uM after 16 hrs by broth microdilution method; format: functional; details: ATCC 29213, 16 h, read-out: GI
Staphylococcus aureus [8] = test: Antibacterial activity against Staphylococcus aureus ATCC 29213 after 16 hrs by broth microdilution method; format: functional; details: ATCC 29213, 16 h

How did the inhibition of growth at 860 µM (Staphylococcus aureus [1]) turn out when CCCCCn1cc(CNC(=O)[C@H](O)C(C)(C)CO)nn1 was run?
Its inhibition of growth at 860 µM is -5%.

CCCc1cn(CCCNC(=O)[C@H](O)C(C)(C)CO)nn1 was tested. Which inhibition of growth at 860 µM (Staphylococcus aureus [1]) did it give?
The inhibition of growth at 860 µM was -13%.

Which inhibition of growth at 1230 µM (Staphylococcus aureus [2]) does the source give for O=C(O)CCNC(=O)[C@H](O)CCO here?
The inhibition of growth at 1230 µM was 9%.

With COC(=O)CNC(=O)[C@H](O)C(C)(C)CO as the compound, how does the inhibition of growth at 1000 µM (Staphylococcus aureus [3]) read?
The inhibition of growth at 1000 µM was 84%.

For CCCCCc1cn(CCNC(=O)[C@H](O)C(C)(C)CO)nn1, which inhibition of growth at 820 µM (Staphylococcus aureus [4]) is on record?
Its inhibition of growth at 820 µM is 72%.

For COC(=O)CCCNC(=O)[C@H](O)C(C)(C)CO, which inhibition of growth at 1000 µM (Staphylococcus aureus [3]) is on record?
The inhibition of growth at 1000 µM was 16%.

COC(=O)CCNC(=O)[C@H](O)C(C)(C)CO was tested. Which inhibition of growth at 1000 µM (Staphylococcus aureus [3]) did it give?
Its inhibition of growth at 1000 µM is 15%.

With CC(C)(CO)[C@@H](O)C(=O)NCc1cn(CCc2ccccc2)nn1 as the compound, how does the inhibition of growth at 1540 µM (Staphylococcus aureus [5]) read?
Its inhibition of growth at 1540 µM is 2%.

With CC(C)(CO)[C@@H](O)C(=O)NCC(=O)O as the compound, how does the inhibition of growth at 1000 µM (Staphylococcus aureus [3]) read?
Its inhibition of growth at 1000 µM is 18%.

How did the inhibition of growth at 860 µM (Staphylococcus aureus [1]) turn out when CCCCCn1cc(CCNC(=O)[C@H](O)C(C)(C)CO)nn1 was run?
Its inhibition of growth at 860 µM is 99%.

How did the Ki [6] turn out when Nc1ncnc2c1ncn2[C@@H]1O[C@H](Cn2cc(CO[C@@H]3O[C@H](CO)[C@H](O)[C@H](O)[C@H]3O)nn2)[C@@H](O)[C@H]1O was run?
Its Ki is 164 µM.

With CCCCn1cc(CCNC(=O)[C@H](O)C(C)(C)CO)nn1 as the compound, how does the inhibition of growth at 550 µM (Staphylococcus aureus [7]) read?
The inhibition of growth at 550 µM was 86%.

With CCCCCNC(=O)CCNC(=O)[C@H](O)C(C)(C)CO as the compound, how does the MIC (Staphylococcus aureus [8]) read?
The MIC was 14 µM (≈ 4.04 µg/mL).

With CC(C)(CO)[C@@H](O)C(=O)NCCCC(=O)O [HOPANTENIC ACID] as the compound, how does the inhibition of growth at 1000 µM (Staphylococcus aureus [3]) read?
The inhibition of growth at 1000 µM was 87%.
